Experimental data from US8124135B2, “Compositions and methods for reduction of LDL oxidation” (VDF FutureCeuticals, Inc., priority 2005, dated 2012).

Tested on: Cu-induced LDL oxidation in human serum
Experiment: Cu-induced LDL oxidation in human serum ex vivo (fluorescence)
Conditions: after 2 hrs of serum exposure to copper ions
Method: Total amounts of cholesterol, HDL, LDL, triglycerides were measured using Cholestech System. SPG in powder form was provided by VDF FutureCeuticals, Inc. and dissolved in water at various ad indicated concentrations. Copper chloride was from Sigma. Black transparent-bottom 96-well plates were from Nalgene Nunc International. Oxidation of LDL was measured using fluorescence methods as described elsewhere (supra). Cu-induced LDL oxidation was performed in PBS (100 ul/well) with 4 ul of human sera, 2 ul of copper chloride (concentration 4 mM) and 0.5 ul of H2O2 (concentration 88.2 nM) resulting in 8-uM concentration of copper ions and 44 μM of hydrogen peroxide, respectively. Formation of Cu-induced oxLDL was measured directly in human serum using a 96-well plate set up and Gemini Fluorescent plate reader (Molecular Devices). The fluorescence signal at 360/430 and 360/470 was measured at time 0, 2 and 16 hours. oxLDL fluorescence values compared to concentration 0 on each graph show how much fluorescent signal for oxidized LDL increased between time 0 and 2 or 16 hrs, respectively, while the value at concentration 0 represents the max increase of oxLDL generation under the experimental conditions.

IC50 of Cu-induced LDL oxidation in serum: 69 µg/mL
Compound: O=C1O[C@H]([C@@H](O)CO)C(O)=C1O [ascorbic acid]
